US12077503B2, “Substituted cyclic amides and their use as herbicides” (FMC CORPORATION, priority 2015, dated 2024)

Legend:
Assay type in all cases: in vivo
[1] = test system: Kochia (Kochia scoparia); experiment: Test A preemergence; settings: Bassia scoparia, pre-emergence, 240 h, preemergence, read-out: Kochia plant response rating; for pest or weed control at 125 g/ha: 125 g ai/ha, 0 to 100 scale where 0 is no effect and 100 is complete control; for pest or weed control at 500 g/ha: 500 g ai/ha, visual injury rating about 10 d after treatment, 0 to 100 scale (0 no effect, 100 complete control)
In short: (§1)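 Treatment is preemergence as a directed soil spray after planting, or postemergence at the one- to two-leaf stage, with test chemical in a non-phytotoxic solvent mixture plus surfactant. Plants stay in the greenhouse about 10 d before visual injury scoring on a 0 to 100 scale versus untreated controls.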

[2] = test system: barnyardgrass (Echinochloa crus-galli); experiment: Test A preemergence; settings: Echinochloa crus-galli, pre-emergence, 240 h, preemergence, read-out: Barnyardgrass plant response rating; for pest or weed control at 125 g/ha: 125 g ai/ha, 0 to 100 scale where 0 is no effect and 100 is complete control; for pest or weed control at 500 g/ha: 500 g ai/ha, visual injury rating about 10 d after treatment, 0 to 100 scale (0 no effect, 100 complete control)
In short: as §1

[3] = test system: giant foxtail (Setaria faberii); experiment: Test A preemergence; settings: Setaria faberi, pre-emergence, 240 h, preemergence, read-out: Foxtail, Giant plant response rating; for pest or weed control at 125 g/ha: 125 g ai/ha, 0 to 100 scale where 0 is no effect and 100 is complete control; for pest or weed control at 500 g/ha: 500 g ai/ha, visual injury rating about 10 d after treatment, 0 to 100 scale (0 no effect, 100 complete control)
In short: as §1

[4] = test system: pigweed (Amaranthus retroflexus); experiment: Test A preemergence; settings: Amaranthus retroflexus, pre-emergence, 240 h, preemergence, read-out: Pigweed plant response rating; for pest or weed control at 125 g/ha: 125 g ai/ha, 0 to 100 scale where 0 is no effect and 100 is complete control; for pest or weed control at 500 g/ha: 500 g ai/ha, visual injury rating about 10 d after treatment, 0 to 100 scale (0 no effect, 100 complete control)
[5] = test system: ragweed (common ragweed, Ambrosia elatior); experiment: Test A preemergence; settings: Ambrosia artemisiifolia, pre-emergence, 240 h, preemergence, read-out: Ragweed plant response rating; for pest or weed control at 125 g/ha: 125 g ai/ha, 0 to 100 scale where 0 is no effect and 100 is complete control; for pest or weed control at 500 g/ha: 500 g ai/ha, visual injury rating about 10 d after treatment, 0 to 100 scale (0 no effect, 100 complete control)
In short: as §1

[6] = test system: ryegrass, Italian (Italian ryegrass, Lolium multiflorum); experiment: Test A preemergence; settings: Lolium multiflorum, pre-emergence, 240 h, preemergence, read-out: Ryegrass, Italian plant response rating; for pest or weed control at 125 g/ha: 125 g ai/ha, 0 to 100 scale where 0 is no effect and 100 is complete control; for pest or weed control at 500 g/ha: 500 g ai/ha, visual injury rating about 10 d after treatment, 0 to 100 scale (0 no effect, 100 complete control)
In short: as §1

[7] = test system: Galium (catchweed bedstraw, Galium aparine); experiment: Test A postemergence; settings: Galium, post-emergence, 240 h, 125 g ai/ha, Postemergence; visual injury after approximately 10 d; 0 to 100 scale where 0 is no effect and 100 is complete control; read-out: Plant response rating, Galium
In short: as §1

[8] = test system: Kochia (Kochia scoparia); experiment: Test A postemergence; settings: Bassia scoparia, post-emergence, 240 h, 125 g ai/ha, Postemergence; visual injury after approximately 10 d; 0 to 100 scale where 0 is no effect and 100 is complete control; read-out: Plant response rating, Kochia
In short: as §1

[9] = test system: barnyardgrass (Echinochloa crus-galli); experiment: Test A postemergence; settings: Echinochloa crus-galli, post-emergence, 240 h, 125 g ai/ha, Postemergence; visual injury after approximately 10 d; 0 to 100 scale where 0 is no effect and 100 is complete control; read-out: Plant response rating, Barnyardgrass
In short: as §1

[10] = test system: blackgrass (Alopecurus myosuroides); experiment: Test A postemergence; settings: Alopecurus myosuroides, post-emergence, 240 h, 125 g ai/ha, Postemergence; visual injury after approximately 10 d; 0 to 100 scale where 0 is no effect and 100 is complete control; read-out: Plant response rating, Blackgrass
In short: as §1

[11] = test system: corn (Zea mays); experiment: Test A postemergence; settings: Zea mays, post-emergence, 240 h, 125 g ai/ha, Postemergence; visual injury after approximately 10 d; 0 to 100 scale where 0 is no effect and 100 is complete control
In short: as §1

[12] = test system: giant foxtail (Setaria faberii); experiment: Test A postemergence; settings: Setaria faberi, post-emergence, 240 h, 125 g ai/ha, Postemergence; visual injury after approximately 10 d; 0 to 100 scale where 0 is no effect and 100 is complete control; read-out: Plant response rating, Foxtail, Giant
In short: as §1

[13] = test system: pigweed (Amaranthus retroflexus); experiment: Test A postemergence; settings: Amaranthus retroflexus, post-emergence, 240 h, 125 g ai/ha, Postemergence; visual injury after approximately 10 d; 0 to 100 scale where 0 is no effect and 100 is complete control; read-out: Plant response rating, Pigweed
In short: as §1

[14] = test system: ragweed (common ragweed, Ambrosia elatior); experiment: Test A postemergence; settings: Ambrosia artemisiifolia, post-emergence, 240 h, 125 g ai/ha, Postemergence; visual injury after approximately 10 d; 0 to 100 scale where 0 is no effect and 100 is complete control; read-out: Plant response rating, Ragweed
In short: as §1

[15] = test system: ryegrass, Italian (Italian ryegrass, Lolium multiflorum); experiment: Test A postemergence; settings: Lolium multiflorum, post-emergence, 240 h, 125 g ai/ha, Postemergence; visual injury after approximately 10 d; 0 to 100 scale where 0 is no effect and 100 is complete control; read-out: Plant response rating, Ryegrass, Italian
In short: as §1

[16] = test system: wheat (Triticum aestivum); experiment: Test A postemergence; settings: Triticum aestivum, post-emergence, 240 h, 125 g ai/ha, Postemergence; visual injury after approximately 10 d; 0 to 100 scale where 0 is no effect and 100 is complete control; read-out: Plant response rating, Wheat
In short: as §1

SMILES | pest or weed control at 125 g/ha [1] [%] | pest or weed control at 500 g/ha [1] [%] | pest or weed control at 125 g/ha [2] [%] | pest or weed control at 500 g/ha [2] [%] | pest or weed control at 125 g/ha [3] [%] | pest or weed control at 500 g/ha [3] [%] | pest or weed control at 125 g/ha [4] [%] | pest or weed control at 500 g/ha [4] [%] | pest or weed control at 500 g/ha [5] [%] | pest or weed control at 500 g/ha [6] [%] | pest or weed control at 125 g/ha [7] [%] | pest or weed control at 125 g/ha [8] [%] | pest or weed control at 125 g/ha [9] [%] | pest or weed control at 125 g/ha [10] [%] | Corn plant response rating (crop injury, 0 = no effect, 100 = complete kill) at 125 g/ha [11] [%] | pest or weed control at 125 g/ha [12] [%] | pest or weed control at 125 g/ha [13] [%] | pest or weed control at 125 g/ha [14] [%] | pest or weed control at 125 g/ha [15] [%] | plant injury at 125 g/ha [16] [%] | also measured
O=C(Nc1cccc(Cl)c1F)[C@H]1C(=O)N(C2CC2)CC[C@@H]1c1cccc(C(F)(F)F)c1 [Compound 926] | 0 | 0 | 30 | 90 | 80 | 90 | 0 | 0 | 0 | 0 | 0 | 0 | 40 | 0 | 0 | 40 | 0 | 0 | 0 | 0 | pest or weed control at 125 g/ha [5]: 0%; pest or weed control at 125 g/ha [6]: 0%
CS(=O)(=O)c1ccccc1NC(=O)[C@H]1C(=O)N(C2CC2)CC[C@@H]1c1cccc(C(F)(F)F)c1 [Compound 927] | 0 | 0 | 0 | 70 | 0 | 70 | 0 | 0 | 0 | 0 | 0 | 0 | 0 | 0 | 0 | 0 | 0 | 0 | 0 | 0 | pest or weed control at 125 g/ha [5]: 0%; pest or weed control at 125 g/ha [6]: 0%
CCc1ccccc1NC(=O)[C@H]1C(=O)N(C)C[C@@H]1c1ccc(C(F)(F)F)cc1 [Compound 935] | 70 | 80 | 70 | 90 | 90 | 90 | 20 | 20 | 30 | 50 | 40 | 30 | 70 | 60 | 40 | 90 | 20 | 0 | 20 | 30 | –
CN1C[C@H](c2ccc(C(F)(F)F)cc2)[C@@H](C(=O)Nc2cccc(F)c2Cl)C1=O [Compound 938] | 70 | 80 | 90 | 90 | 90 | 90 | 80 | 90 | 20 | 30 | 50 | 40 | 80 | 40 | 60 | 80 | 50 | 0 | 20 | 40 | –
O=C1NC[C@H](c2cccc(C(F)(F)F)n2)[C@H]1C(=O)Nc1ccccc1F [Compound 940] | 0 | 0 | 30 | 70 | 40 | 90 | 0 | 0 | 0 | 0 | 0 | 0 | 10 | 0 | 0 | 0 | 0 | 0 | 0 | 0 | –
